Experimental data published in ChEMBL document CHEMBL5352410, “Discovery of novel selenium-containing azole derivatives as antifungal agents by exploiting the hydrophobic cleft of CYP51” (Eur J Med Chem, 2022).
Values after ≈ are worked out from the molar mass of the structure shown.

Assays:
Type in all cases: functional
[Candida] zeylanoides = Antifungal activity against Candida zeylanoides by CLSI based broth microdilution method; conditions: Dujonia zeylanoides
Candida albicans [1] = test: Antifungal activity against Candida albicans by CLSI based broth microdilution method
Candida albicans [2] = test: Antifungal activity against FCZ-resistant Candida albicans 17# by CLSI based broth microdilution method
Candida albicans [3] = test: Antifungal activity against FCZ-resistant Candida albicans 632 by CLSI based broth microdilution method
Candida albicans [4] = test: Antifungal activity against FCZ-resistant Candida albicans 904 by CLSI based broth microdilution method
Candida parapsilosis = test: Antifungal activity against Candida parapsilosis by CLSI based broth microdilution method; conditions: Lodderomyces parapsilosis
Candida albicans [5] = test: Antifungal activity against FCZ-resistant Candida albicans 901 by CLSI based broth microdilution method
Candida albicans [6] = test: Antifungal activity against Candida albicans sc5314 by CLSI based broth microdilution method
Candida albicans [7] = test: Antifungal activity against FCZ-resistant Candida albicans CaR by CLSI based broth microdilution method
Pichia kudriavzevii = test: Antifungal activity against Pichia kudriavzevii by CLSI based broth microdilution method
Nakaseomyces glabratus = test: Antifungal activity against Candida glabrata by CLSI based broth microdilution method
Aspergillus fumigatus = test: Antifungal activity against Aspergillus fumigatus by CLSI based broth microdilution method
Cryptococcus neoformans = test: Antifungal activity against Cryptococcus neoformans by CLSI based broth microdilution method
Candida albicans [8] = test: Fungicidal activity against FCZ-resistant Candida albicans 632
Candida albicans [9] = test: Fungicidal activity against FCZ-resistant Candida albicans CaR
Candida albicans [10] = test: Fungicidal activity against FCZ-resistant Candida albicans 17#
Candida albicans [11] = test: Fungicidal activity against FCZ-resistant Candida albicans 901
Candida albicans [12] = test: Fungicidal activity against FCZ-resistant Candida albicans 904
Candida albicans [13] = test: Fungicidal activity against Candida albicans sc5314
Candida albicans [14] = test: Fungicidal activity against Candida albicans

Row | Structure (SMILES) | MIC ([Candida] zeylanoides) [mg/L] | MIC (Candida albicans [1]) [mg/L] | MIC (Candida albicans [2]) [mg/L] | MIC (Candida albicans [3]) [mg/L] | MIC (Candida albicans [4]) [mg/L] | MIC (Candida parapsilosis) [mg/L] | MIC (Candida albicans [5]) [mg/L] | MIC (Candida albicans [6]) [mg/L] | MIC (Candida albicans [7]) [mg/L] | MIC (Pichia kudriavzevii) [mg/L] | MIC (Nakaseomyces glabratus) [mg/L] | MIC (Aspergillus fumigatus) [mg/L] | MIC (Cryptococcus neoformans) [mg/L] | MFC (Candida albicans [8]) [mg/L] | MFC (Candida albicans [9]) [mg/L] | MFC (Candida albicans [10]) [mg/L] | MFC (Candida albicans [11]) [mg/L] | MFC (Candida albicans [12]) [mg/L] | MFC (Candida albicans [13]) [mg/L] | MFC (Candida albicans [14]) [mg/L]
1 | Fc1ccc(C(Cn2ccnn2)[Se]C(Cn2ccnn2)c2ccc(F)cc2F)c(F)c1 (stereo unspecified) | 1 (≈ 2.02 µM) | > 64 | 4 (≈ 8.08 µM) | > 64 | > 64 | > 64 | > 64 | > 64 | 64 (≈ 129 µM) | > 64 | 64 (≈ 129 µM) | > 64 | 32 (≈ 64.6 µM) |  |  |  |  |  |  | 
2 | Clc1ccc(C(Cn2ccnn2)[Se]C(Cn2ccnn2)c2ccc(Cl)cc2Cl)c(Cl)c1 (stereo unspecified) | 32 (≈ 57 µM) | > 64 | 4 (≈ 7.13 µM) | > 64 | > 64 | > 64 | > 64 | > 64 | 128 (≈ 228 µM) | > 64 | 64 (≈ 114 µM) | > 64 | 64 (≈ 114 µM) |  |  |  |  |  |  | 
3 | Clc1ccc(C(Cn2ccnn2)[Se][Se]C(Cn2ccnn2)c2ccc(Cl)cc2)cc1 (stereo unspecified) |  |  | > 64 | > 64 | > 64 |  | > 64 |  | > 64 |  |  |  |  |  |  |  |  |  |  | 
4 | Clc1ccc(C(Cn2cncn2)[Se][Se]C(Cn2cncn2)c2ccc(Cl)cc2)cc1 (stereo unspecified) |  |  | 64 (≈ 112 µM) | > 64 | 16 (≈ 28 µM) |  | 16 (≈ 28 µM) |  | 4 (≈ 7 µM) |  |  |  |  |  |  |  |  |  |  | 
5 | Fc1ccc(C(Cn2cnnn2)[Se][Se]C(Cn2cnnn2)c2ccc(F)cc2)cc1 (stereo unspecified) |  |  | 32 (≈ 59.2 µM) | > 64 | > 64 |  | > 64 |  | 16 (≈ 29.6 µM) |  |  |  |  |  |  |  |  |  |  | 
6 | Clc1ccc(C(Cn2ccnn2)[Se][Se]C(Cn2ccnn2)c2ccc(Cl)cc2Cl)c(Cl)c1 (stereo unspecified) |  |  | 64 (≈ 100 µM) | > 64 | > 64 |  | > 64 |  | 4 (≈ 6.25 µM) |  |  |  |  |  |  |  |  |  |  | 
7 | c1ccc(C(Cn2ccnc2)[Se][Se]C(Cn2ccnc2)c2ccccc2)cc1 (stereo unspecified) |  |  | > 64 | 8 (≈ 16 µM) | 8 (≈ 16 µM) |  | 4 (≈ 7.99 µM) |  | 2 (≈ 4 µM) |  |  |  |  | 16 (≈ 32 µM) | > 64 | > 64 | 8 (≈ 16 µM) | 8 (≈ 16 µM) | 16 (≈ 32 µM) | 64 (≈ 128 µM)
8 | Fc1ccc(C(Cn2cncn2)[Se]C(Cn2cncn2)c2ccc(F)cc2)cc1 (stereo unspecified) | 1 (≈ 2.18 µM) | > 64 | 8 (≈ 17.4 µM) | > 64 | 64 (≈ 139 µM) | > 64 | > 64 | 32 (≈ 69.7 µM) | 64 (≈ 139 µM) | > 64 | 64 (≈ 139 µM) | > 64 | > 64 |  |  |  |  |  |  | 
9 | Clc1ccc(C(Cn2cncn2)[Se][Se]C(Cn2cncn2)c2ccc(Cl)cc2Cl)c(Cl)c1 (stereo unspecified) |  |  | 16 (≈ 25 µM) | > 64 | > 64 |  | > 64 |  | 8 (≈ 12.5 µM) |  |  |  |  |  |  |  |  |  |  | 
10 | Fc1ccc(C(Cn2cncn2)[Se][Se]C(Cn2cncn2)c2ccc(F)cc2)cc1 (stereo unspecified) |  |  | 16 (≈ 29.7 µM) | 64 (≈ 119 µM) | 16 (≈ 29.7 µM) |  | 16 (≈ 29.7 µM) |  | 4 (≈ 7.43 µM) |  |  |  |  |  |  |  |  |  |  | 
11 | Clc1ccc(C(Cn2cnnn2)[Se]C(Cn2cnnn2)c2ccc(Cl)cc2)cc1 (stereo unspecified) | > 64 | > 64 | > 64 | > 64 | > 64 | > 64 | > 64 | > 64 | > 64 | > 64 | > 64 | > 64 | > 64 |  |  |  |  |  |  | 
12 | Clc1ccc(C(Cn2cnnn2)[Se][Se]C(Cn2cnnn2)c2ccc(Cl)cc2)cc1 (stereo unspecified) |  |  | > 64 | > 64 | > 64 |  | > 64 |  | > 64 |  |  |  |  |  |  |  |  |  |  | 
13 | Fc1ccc(C(Cn2ccnc2)[Se][Se]C(Cn2ccnc2)c2ccc(F)cc2)cc1 (stereo unspecified) |  |  | 32 (≈ 59.7 µM) | 64 (≈ 119 µM) | 64 (≈ 119 µM) |  | 16 (≈ 29.8 µM) |  | 4 (≈ 7.46 µM) |  |  |  |  | > 64 | > 64 | > 64 | 32 (≈ 59.7 µM) | 64 (≈ 119 µM) | > 64 | > 64
14 | Fc1ccc(C(Cn2ccnn2)[Se][Se]C(Cn2ccnn2)c2ccc(F)cc2F)c(F)c1 (stereo unspecified) |  |  | 16 (≈ 27.9 µM) | > 64 | > 64 |  | > 64 |  | 4 (≈ 6.96 µM) |  |  |  |  |  |  |  |  |  |  | 
15 | Fc1ccc(C(Cn2cnnn2)[Se][Se]C(Cn2cnnn2)c2ccc(F)cc2F)c(F)c1 (stereo unspecified) |  |  | 64 (≈ 111 µM) | > 64 | > 64 |  | > 64 |  | > 64 |  |  |  |  |  |  |  |  |  |  | 
